The numbers were not newly measured in patent US9072768B2, “Composition and method for increasing effectiveness of radiation or chemotherapy” (Kibow Biotech, Inc., priority 2013, dated 2015), which cites them from elsewhere.

This data set has as its system colorectal cancer. As to conditions: adjuvant treatment, stage III patients.

As to `O=c1[nH]cc(F)c(=O)[nH]1` [5-Fluorouracil], the “improvement of absolute 5-year survival” value is “approximately 10%”.
